Experimental data from patent US20040266008A1, “Polyene polyketides, processes for their production and their use as pharmaceuticals” (Ecopia BioSciences, Inc., priority 2003, published 2004).

Columns and labels:
Candida sp. (Cflu) = assay: MIC broth microdilution, Candida sp. (Cflu)
S. cerevisiae (Scer) = assay: MIC broth microdilution, S. cerevisiae (Scer)
C. albicans (Calb) = assay: MIC broth microdilution, C. albicans (Calb)
C. albicans (Ctro) = assay: MIC broth microdilution, C. albicans (Ctro)
C. glabrata (Cgla) = assay: MIC broth microdilution, C. glabrata (Cgla)

Row | SMILES | Minimal Inhibitory Concentrations (Candida sp. (Cflu); 24 hrs) [µg/mL] | Minimal Inhibitory Concentrations (Candida sp. (Cflu); 48 hrs) [µg/mL] | Minimal Inhibitory Concentrations (S. cerevisiae (Scer); 24 hrs) [µg/mL] | Minimal Inhibitory Concentrations (S. cerevisiae (Scer); 48 hrs) [µg/mL] | Minimal Inhibitory Concentrations (C. albicans (Calb); 24 hrs) [µg/mL] | Minimal Inhibitory Concentrations (C. albicans (Calb); 48 hrs) [µg/mL] | Minimal Inhibitory Concentrations (C. albicans (Ctro); 24 hrs) [µg/mL] | Minimal Inhibitory Concentrations (C. albicans (Ctro); 48 hrs) [µg/mL] | Minimal Inhibitory Concentrations (C. glabrata (Cgla); 24 hrs) [µg/mL] | Minimal Inhibitory Concentrations (C. glabrata (Cgla); 48 hrs) [µg/mL]
1 | C[C@@H]1[C@H](O)[C@@H](C)/C=C/C=C/C=C/C=C/C=C/C=C/C=C/[C@H](O[C@@H]2O[C@H](C)[C@@H](O)[C@H](N)[C@@H]2O)C[C@@H]2O[C@](O)(C[C@@H](O)C[C@@H](O)[C@H](O)CC[C@@H](O)C[C@@H](O)CC(=O)O[C@H]1C)C[C@H](O)[C@H]2C(=O)O [Amphotericin B] | 0.5 to 1 | 1 | 0.5 | 1 | 0.5 to 1 | 1 | 1 | 2 | 0.5 to 1 | 1
2 | C\C(=C/C=C/C=C/CC/C=C/C(C)C(O)C(C)C(O)/C=C/C=C/C=C/C=C/C=C/C=C/CC(OS(=O)(=O)O)C(C)C(=O)CC(O)CC(O)/C=C/CC(O)CC(O)CC(O)/C=C/CC(O)CC(O)/C=C/CC(O)CC(O)CCCNC(=N)N)C(=O)O (centres unmarked) [Compound 1] | 8 |  | 4 |  | 4 |  | 4 |  | 4 | 
3 | C\C(=C/C=C/C=C/CC/C=C/C(C)C(O)C(C)C(O)/C=C/C=C/C=C/C=C/C=C/C=C/CC(O)C(C)C(=O)CC(O)CC(O)/C=C/CC(O)CC(O)CC(O)/C=C/CC(O)CC(O)/C=C/CC(O)CC(O)CCCNC(=N)N)C(=O)O (centres unmarked) [Compound 2] |  | 8 |  | 4 |  | 4 |  | 4 |  | 4
